Laboratory results published in patent US9884842B2, “Combretastatin analogs” (The Board of Trustees of the University of Arkansas, priority 2013, dated 2018).

Columns and labels:
HL-60(TB) = experiment: cells; details: Homo sapiens
UACC-257 = experiment: NCI growth inhibition and cytotoxicity screen, Melanoma panel; details: Homo sapiens, UACC-257, read-out: LC50
DU-145 = experiment: NCI growth inhibition and cytotoxicity screen, Prostate Cancer panel; details: Homo sapiens
BT-549 = experiment: NCI growth inhibition and cytotoxicity screen, Breast Cancer panel; details: Homo sapiens
CCRF-CEM = experiment: NCI growth inhibition and cytotoxicity screen, Leukemia panel; details: Homo sapiens
OVCAR-3 = experiment: cells; details: Homo sapiens
SK-MEL-2 = experiment: NCI growth inhibition and cytotoxicity screen, Melanoma panel; details: Homo sapiens
A498 = experiment: NCI growth inhibition and cytotoxicity screen, Renal Cancer panel; details: Homo sapiens
MDA-MB-435 = experiment: NCI growth inhibition and cytotoxicity screen, Melanoma panel; details: Homo sapiens
OVCAR-5 = experiment: NCI growth inhibition and cytotoxicity screen, Ovarian Cancer panel; details: Homo sapiens
NCI-H23 = experiment: NCI growth inhibition and cytotoxicity screen, Lung Cancer panel; details: Homo sapiens
K-562 = experiment: NCI growth inhibition and cytotoxicity screen, Leukemia panel; details: Homo sapiens
NCI-H226 = experiment: NCI growth inhibition and cytotoxicity screen, Lung Cancer panel; details: Homo sapiens
LOX-IMVI = experiment: NCI growth inhibition and cytotoxicity screen, Melanoma panel; details: Homo sapiens
RPMI-8226 = experiment: NCI growth inhibition and cytotoxicity screen, Leukemia panel; details: Homo sapiens
SK-OV-3 = experiment: NCI growth inhibition and cytotoxicity screen, Ovarian Cancer panel; details: Homo sapiens
UO-31 = experiment: NCI growth inhibition and cytotoxicity screen, Renal Cancer panel; details: Homo sapiens
HCC-2998 = experiment: NCI growth inhibition and cytotoxicity screen, Colon Cancer panel; details: Homo sapiens
SNB-19 = experiment: NCI growth inhibition and cytotoxicity screen, CNS Cancer panel; details: Homo sapiens
IGROV1 = experiment: NCI growth inhibition and cytotoxicity screen, Ovarian Cancer panel; details: Homo sapiens
SF-539 = experiment: NCI growth inhibition and cytotoxicity screen, CNS Cancer panel; details: Homo sapiens
T-47D = experiment: NCI growth inhibition and cytotoxicity screen, Breast Cancer panel; details: Homo sapiens, T47D
SNB-75 = experiment: NCI growth inhibition and cytotoxicity screen, CNS Cancer panel; details: Homo sapiens
RXF 393 = experiment: NCI growth inhibition and cytotoxicity screen, Renal Cancer panel; details: Homo sapiens
MDA-MB-231/ATCC = experiment: NCI growth inhibition and cytotoxicity screen, Breast Cancer panel; details: Homo sapiens
U251 = experiment: NCI growth inhibition and cytotoxicity screen, CNS Cancer panel; details: Homo sapiens
SN12C = experiment: NCI growth inhibition and cytotoxicity screen, Renal Cancer panel; details: Homo sapiens
SF-295 = experiment: NCI growth inhibition and cytotoxicity screen, CNS Cancer panel; type: cell-based; details: Homo sapiens, Table 2, cell line SF-295 (CNS Cancer)
A549/ATCC = experiment: NCI growth inhibition and cytotoxicity screen, Lung Cancer panel; details: Homo sapiens
HOP-92 = experiment: as above; details: Homo sapiens
NCI-H522 = experiment: as above; type: cell-based; details: Homo sapiens, Table 2, cell line NCI-H522 (Lung Cancer)
[1] = read-out: LC50 (the source's name)

COc1cc(/C(C#N)=C/c2cnc3ccccc3c2)cc(OC)c1OC [PNR-5-10, (Z)-3-(quinolin-3-yl)-2-(3,4,5-trimethoxyphenyl)acrylonitrile]
GI50 (HL-60(TB); HL-60): 329000 nM
CC50 (HL-60(TB); HL-60, read-out: LC50): > 100000 nM
CC50 (UACC-257): > 100000 nM
GI50 (DU-145; DU-145): 1510 nM
CC50 (DU-145; DU-145, read-out: LC50): > 100000 nM
GI50 (BT-549; BT-549): 1430 nM
CC50 (BT-549; BT-549, read-out: LC50): > 100000 nM
GI50 (CCRF-CEM): 1380 nM
CC50 (CCRF-CEM; read-out: LC50): > 100000 nM
GI50 (OVCAR-3; OVCAR-3): 263 nM
CC50 (OVCAR-3; OVCAR-3, read-out: LC50): > 100000 nM
GI50 (SK-MEL-2; SK-MEL-2): 1050 nM
CC50 (SK-MEL-2; SK-MEL-2, read-out: LC50): > 100000 nM
GI50 (A498; A498): 678 nM
CC50 (A498; A498, read-out: LC50): > 100000 nM
GI50 (MDA-MB-435; MDA-MB-435): 227 nM
CC50 (MDA-MB-435; MDA-MB-435, read-out: LC50): > 100000 nM
GI50 (OVCAR-5; OVCAR-5): 3940 nM
CC50 (OVCAR-5; OVCAR-5, read-out: LC50): > 100000 nM
GI50 (NCI-H23; NCI-H23): 2930 nM
CC50 (NCI-H23; NCI-H23, read-out: LC50): > 100000 nM
GI50 (K-562; K562): 444 nM
CC50 (K-562; K562, read-out: LC50): > 100000 nM
GI50 (NCI-H226; NCI-H226): > 100000 nM
CC50 (NCI-H226; NCI-H226, read-out: LC50): > 100000 nM
GI50 (LOX-IMVI): 645 nM
CC50 (LOX-IMVI; read-out: LC50): > 100000 nM
GI50 (RPMI-8226; RPMI-8226): 2060 nM
CC50 (RPMI-8226; RPMI-8226, read-out: LC50): > 100000 nM
GI50 (SK-OV-3; SK-OV-3): 1340 nM
CC50 (SK-OV-3; SK-OV-3, read-out: LC50): > 100000 nM
GI50 (UO-31; UO-31): 580 nM
CC50 (UO-31; UO-31, read-out: LC50): > 100000 nM
GI50 (HCC-2998; HCC 2998): 2010 nM
CC50 (HCC-2998; HCC 2998, read-out: LC50): > 100000 nM
GI50 (SNB-19; SNB-19): 5230 nM
CC50 (SNB-19; SNB-19, read-out: LC50): > 100000 nM
GI50 (IGROV1; IGROV-1): 3150 nM
CC50 (IGROV1; IGROV-1, read-out: LC50): > 100000 nM
GI50 (SF-539; SF-539): 361 nM
CC50 (SF-539; SF-539, read-out: LC50): > 100000 nM
GI50 (T-47D): 9540 nM
CC50 (T-47D; read-out: LC50): > 100000 nM
GI50 (SNB-75; SNB-75): 1490 nM
CC50 (SNB-75; SNB-75, read-out: LC50): > 100000 nM
GI50 (RXF 393; RXF 393): 579 nM
CC50 (RXF 393; RXF 393, read-out: LC50): > 100000 nM
GI50 (MDA-MB-231/ATCC; MDA-MB-231): 2830 nM
CC50 (MDA-MB-231/ATCC; MDA-MB-231, read-out: LC50): > 100000 nM
GI50 (U251; U-251): 1700 nM
CC50 (U251; U-251, read-out: LC50): > 100000 nM
GI50 (SN12C): 1940 nM
CC50 (SN12C; read-out: LC50): > 100000 nM
GI50 (SF-295): 556 nM
CC50 (SF-295; [1]): > 100000 nM
GI50 (A549/ATCC; A549): 680 nM
CC50 (A549/ATCC; A549, read-out: LC50): > 100000 nM
GI50 (HOP-92; HOP-92): 403 nM
CC50 (HOP-92; HOP-92, read-out: LC50): > 100000 nM
GI50 (NCI-H522): 299 nM
CC50 (NCI-H522; [1]): > 100000 nM
